The subject of one assay is MCF-10A cells. The assay can be described thus: Inhibitory effects on the proliferation of MCF-10A cells (CCK8). Particulars: 6 days. Format: cell-based. Here is the method: Experimental Example 2: Experiment of Inhibitory Effects on the Proliferation of MCF-10A Cells
MCF-10A cells (Cobioer Bio. #CBP60419MCF) were diluted with complete medium (Cobioer Bio. #CBP60419), seeded in 96-well plate (Corning #3599) at 500 cells/well, and then cultured for 24 h. Then, gradiently diluted compounds were added (starting at a final concentration of 10 μM, 3-fold dilution, 9 dose concentrations), and the final volume was adjusted to 100 μL/well. The plate was incubated at 37° C. under 5% CO2 for 6 days. After the cultivation was completed, CCK8 reagent (Signalway Antibody Bio. #CP002) was added at 10 μL/well, and then the plate was further incubated at 37° C. under 5% CO2 for 2-3 hours. The OD450 nm value was obtained by a microplate reader.
The results are shown in the MCF-OA IC50 column in Table 2.

A further assay deals with T47D cells. In words: Inhibitory effects on the proliferation of T47D cells (CellTiter-Glo). Particulars: 7 days. The class given is cell-based. The procedure: Experimental Example 3: Experiment of Inhibitory Effects on the Proliferation of T47D Cells
T47D cells (ATCC. #HTB-133) were diluted with RPMI 1640 (Gibco #22400-089) containing 10% FBS (Hyclone #SH30084.03), seeded in 96-well plate (Biosharp #BS-MP-96W) at 1000 cells/well, and then cultured for 24 h. Then, gradiently diluted compounds were added (starting at a final concentration of 10 μM, 3-fold dilution, 9 dose concentrations), and the final volume was adjusted to 150 μL/well. The plate was incubated at 37° C. under […] for 7 days. After the cultivation was completed, CellTiter-Glo reagent (Promega #G7573) was added at 75 μL/well, and then the plate was further incubated at 25° C. for 10 min. After that, the chemiluminescence value was read using an instrument.
The results are shown in the T47D IC50 column in Table 2.

Here are results for 36 compounds from patent publication US20260015341A1, “PI3K INHIBITOR, PREPARATION METHOD THEREFOR, AND USE THEREOF” (HINOVA PHARMACEUTICALS INC., priority 2022, published 2026).

Each structure is given as a SMILES string.

As for `Cc1cc([C@@H](C)Nc2ccccc2C(O)C(F)(F)F)c2oc(-c3ccc(F)cc3)cc(=O)c2c1` (single isomer, unassigned) [Compound 67], the IC50 with MCF-10A cells (Homo sapiens, 144 h) is above 5 µM; in the assay with T47D cells (Homo sapiens, 168 h), 1 to 5 µM.

For the compound `Cc1cc([C@@H](C)Nc2ccccc2C(O)C(F)(F)F)c2oc(-c3ccc(F)cc3)cc(=O)c2c1` (single isomer, unassigned) [Compound 68], the IC50 was above 5 µM with MCF-10A cells and 1 to 5 µM in the assay on T47D cells.

As for `Cc1cc([C@@H](C)Nc2ccccc2C(=NO)C(F)(F)F)c2oc(-c3ccc(F)cc3F)cc(=O)c2c1` (stereo in doubt) [Compound 64, (R,E)-2-(2,4-difluorophenyl)-6-methyl-8-(1-((2-(2,2,2-trifluoro-1-(hydroxyimino)ethyl)phenyl)amino)ethyl)-4H-chromen-4-one], the IC50 in the assay with MCF-10A cells (Homo sapiens, 144 h) was above 5 µM; in the assay with T47D cells (Homo sapiens, 168 h) it was 1 to 5 µM.

Regarding `Cc1cc([C@@H](C)Nc2ccccc2C(N)=O)c2oc(-c3ccc(F)cc3F)cc(=O)c2c1` [Compound 47], the IC50 in the assay with MCF-10A cells (Homo sapiens, 144 h) was above 5 µM; with T47D cells (Homo sapiens, 168 h) it was below 1 µM.

Regarding `Cc1cc([C@@H](C)Nc2ccccc2C(=O)OC(C)(C)C)c2nc(-c3c(C)noc3C)n(C)c(=O)c2c1` [Compound 49], the IC50 in the assay on MCF-10A cells (Homo sapiens, 144 h) was above 5 µM; in the assay with T47D cells (Homo sapiens, 168 h), 1 to 5 µM.

Regarding `Cc1cc([C@@H](C)Nc2ccc(Cl)nc2C(=O)OC(C)(C)C)c2nc(-c3c(C)noc3C)n(C)c(=O)c2c1` [Compound 50], the IC50 in the assay with MCF-10A cells (Homo sapiens, 144 h) is above 5 µM; in the assay on T47D cells (Homo sapiens, 168 h), 1 to 5 µM.

Regarding `Cc1cc([C@@H](C)Nc2ccccc2C(=O)O)c2nc(-c3c(C)noc3C)n(C)c(=O)c2c1` [Compound 51], the IC50 was above 5 µM in the assay on MCF-10A cells (Homo sapiens, 144 h) and above 5 µM in the assay on T47D cells (Homo sapiens, 168 h).

Regarding `COC(=O)c1occc1N[C@H](C)c1cc(C)cc2c(=O)cc(-c3ccc(F)cc3F)oc12` [Compound 63, methyl (R)-3-((1-(2-(2,4-difluorophenyl)-6-methyl-4-oxo-4H-chromen-8-yl)ethyl)amino)furan-2-carboxylate], the IC50 in the assay with MCF-10A cells (Homo sapiens, 144 h) is above 5 µM; with T47D cells (Homo sapiens, 168 h), 1 to 5 µM.

Turning to `Cc1cc([C@@H](C)Nc2ccc(Cl)nc2C(=O)O)c2nc(-c3ccc(C(F)(F)F)cn3)n(C)c(=O)c2c1` [Compound 75], the IC50 with MCF-10A cells (Homo sapiens, 144 h) was above 5 µM; in the assay with T47D cells (Homo sapiens, 168 h), 1 to 5 µM.

On to `C[C@@H](Nc1ccccc1C(=O)O)c1cc(F)cc2c(=O)n(C)c(-c3ccc(F)cn3)nc12` [Compound 76], for which the IC50 was above 5 µM in the assay on MCF-10A cells (Homo sapiens, 144 h) and 1 to 5 µM in the assay with T47D cells (Homo sapiens, 168 h).

Consider `Cc1cc([C@@H](C)Nc2cc(F)ccc2C(=O)O)c2nc(-c3ccc(F)cn3)n(C)c(=O)c2c1` [Compound 78], for which the IC50 was above 5 µM with MCF-10A cells (Homo sapiens, 144 h) and 1 to 5 µM in the assay on T47D cells (Homo sapiens, 168 h).

As to `C[C@@H](Nc1cccc(F)c1C(=O)O)c1cc(F)cc2c(=O)n(C)c(-c3ccccc3)nc12` [Compound 79], the IC50 in the assay with MCF-10A cells (Homo sapiens, 144 h) was above 5 µM; with T47D cells (Homo sapiens, 168 h) it was 1 to 5 µM.

Turning to `C[C@@H](Nc1cc(F)ccc1C(=O)O)c1cc(F)cc2c(=O)n(C)c(-c3ccc(F)cn3)nc12` [Compound 81], the IC50 in the assay with MCF-10A cells (Homo sapiens, 144 h) is above 5 µM; with T47D cells (Homo sapiens, 168 h) it was above 5 µM.

On to `C[C@@H](Nc1ccc(Cl)nc1C(=O)O)c1cc(Cl)cc2c(=O)n(C)c(-c3ccc(F)cn3)nc12` [Compound 83], for which the IC50 with MCF-10A cells (Homo sapiens, 144 h) is above 5 µM; in the assay with T47D cells (Homo sapiens, 168 h) it was below 1 µM.

Turning to `C[C@@H](Nc1sccc1C(=O)O)c1cc(F)cc2c(=O)n(C)c(-c3ccc(F)cn3)nc12` [Compound 84], the half-inhibitory concentration (IC50) was above 5 µM in the assay on MCF-10A cells (Homo sapiens, 144 h) and above 5 µM with T47D cells (Homo sapiens, 168 h).

`C[C@@H](Nc1c(C(=O)O)cnn1C)c1cc(Cl)cc2c(=O)n(C)c(-c3ccc(F)cn3)nc12` [Compound 86]: the IC50 with MCF-10A cells (Homo sapiens, 144 h) is above 5 µM; in the assay with T47D cells (Homo sapiens, 168 h) it was above 5 µM.

On to `Cc1cc([C@@H](C)Nc2ccc(F)cc2C(=O)O)c2nc(-c3ccc(F)cn3)n(C)c(=O)c2c1` [Compound 87], for which the IC50 was above 5 µM in the assay on MCF-10A cells (Homo sapiens, 144 h) and below 1 µM with T47D cells (Homo sapiens, 168 h).

On to `[2H]C([2H])([2H])n1c(-c2ccc(F)cn2)nc2c([C@@H](C)Nc3ccc(Cl)cc3C(=O)O)cc(F)cc2c1=O` [Compound 88, (R)-5-chloro-2-((1-(6-fluoro-2-(5-fluoropyridin-2-yl)-3-deuteromethyl-4-oxo-3,4-dihydroquinazolin-8-yl)ethyl)amino)benzoic Acid], for which the IC50 with MCF-10A cells (Homo sapiens, 144 h) is above 5 µM; in the assay on T47D cells (Homo sapiens, 168 h), above 5 µM.

Take `[2H]C([2H])([2H])n1c(-c2cccc(F)c2)nc2c([C@@H](C)Nc3ccc(Cl)nc3C(=O)O)cc(F)cc2c1=O` [Compound 89]: the IC50 is above 5 µM with MCF-10A cells (Homo sapiens, 144 h) and 1 to 5 µM in the assay on T47D cells (Homo sapiens, 168 h).

In the case of `Cc1cc([C@@H](C)Nc2ccc(Cl)cc2C(=O)O)c2nc(-c3ccc(F)cn3)n(C)c(=O)c2c1` [Compound 90], the IC50 in the assay on MCF-10A cells (Homo sapiens, 144 h) is above 5 µM; with T47D cells (Homo sapiens, 168 h), below 1 µM.

For the compound `[2H]C([2H])([2H])n1c(-c2ccc(F)cn2)nc2c([C@@H](C)Nc3ccc(F)cc3C(=O)O)cc(F)cc2c1=O` [Compound 91], the IC50 was above 5 µM in the assay with MCF-10A cells (Homo sapiens, 144 h) and below 1 µM with T47D cells (Homo sapiens, 168 h).

In the case of `[2H]C([2H])([2H])n1c(-c2cccc(F)c2)nc2c([C@@H](C)Nc3ccc(Cl)nc3C(=O)O)cc(C)cc2c1=O` [Compound 93], the IC50 in the assay with MCF-10A cells (Homo sapiens, 144 h) was above 5 µM; in the assay with T47D cells (Homo sapiens, 168 h) it was below 1 µM.

For `[2H]C([2H])([2H])n1c(-c2ccc(C(F)(F)F)nc2)nc2c([C@@H](C)Nc3ccc(Cl)nc3C(=O)O)cc(C)cc2c1=O` [Compound 94], the IC50 in the assay with MCF-10A cells (Homo sapiens, 144 h) is above 5 µM; with T47D cells (Homo sapiens, 168 h) it was below 1 µM.

On to `C[C@@H](Nc1ccc(Cl)nc1C(=O)O)c1cc(Cl)cc2c(=O)n(C)c(-c3ncc(Cl)cn3)nc12` [Compound 97], for which the IC50 in the assay on MCF-10A cells (Homo sapiens, 144 h) is 1 to 5 µM; in the assay on T47D cells (Homo sapiens, 168 h), below 1 µM.

As to `C[C@@H](Nc1ccc(Cl)nc1C(=O)O)c1cc(Cl)cc2c(=O)n(C)c(-c3ncccn3)nc12` [Compound 98], the IC50 in the assay with MCF-10A cells (Homo sapiens, 144 h) was above 5 µM; in the assay with T47D cells (Homo sapiens, 168 h), below 1 µM.

Regarding `CCSc1nc2c([C@@H](C)Nc3ccc(Cl)nc3C(=O)OC)cc(F)cc2c(=O)n1C` [Compound 105], the IC50 in the assay with MCF-10A cells (Homo sapiens, 144 h) is above 5 µM; in the assay on T47D cells (Homo sapiens, 168 h), 1 to 5 µM.

`COC(=O)c1nc(Cl)ccc1NC(C)c1cc(C)cc2c(=O)n(C)c(-c3ccc(OC)cc3)nc12` (centres unmarked) [Compound 106]: the IC50 with MCF-10A cells (Homo sapiens, 144 h) was above 5 µM; in the assay on T47D cells (Homo sapiens, 168 h), below 1 µM.

In the case of `COc1ccc(-c2nc3c(C(C)N)cc(C)cc3c(=O)n2C)cc1` (centres unmarked) [Compound 107], the IC50 in the assay on MCF-10A cells (Homo sapiens, 144 h) is above 5 µM; in the assay with T47D cells (Homo sapiens, 168 h) it was below 1 µM.

`Cc1cc([C@@H](C)N[S@+]([O-])C(C)(C)C)c2nc(-c3ccncc3)n(C)c(=O)c2c1` [Compound 108]: the IC50 in the assay with MCF-10A cells (Homo sapiens, 144 h) was above 5 µM; with T47D cells (Homo sapiens, 168 h), above 5 µM.

On to `Cc1cc([C@@H](C)Nc2ccc(Cl)nc2C(=O)O)c2nc(-c3ccncc3)n(C)c(=O)c2c1` [Compound 109, (R)-6-chloro-3-((1-(3,6-dimethyl-4-oxo-2-(pyridin-4-yl)-3,4-dihydroquinazolin-8-yl)ethyl)amino)pyridinecarboxylic Acid], for which the IC50 is above 5 µM with MCF-10A cells (Homo sapiens, 144 h) and below 1 µM in the assay with T47D cells (Homo sapiens, 168 h).

In the case of `Cc1cc([C@@H](C)Nc2ccc(Cl)nc2C(N)=O)c2nc(-c3ccncc3)n(C)c(=O)c2c1` [Compound 110], the IC50 in the assay on MCF-10A cells (Homo sapiens, 144 h) is above 5 µM; in the assay on T47D cells (Homo sapiens, 168 h), below 1 µM.

Consider `COc1ccc(-c2nc3c([C@@H](C)Nc4ccc(Cl)nc4C(=O)O)cc(C)cc3c(=O)n2C)cc1` [Compound 111], for which, in the assay with MCF-10A cells (Homo sapiens, 144 h), the IC50 is above 5 µM.

`COc1ccc(-c2nc3c([C@@H](C)Nc4ccc(Cl)nc4C(N)=O)cc(C)cc3c(=O)n2C)cc1` [Compound 112] gave an IC50 with MCF-10A cells (Homo sapiens, 144 h) of 1 to 5 µM.

Consider `COC(=O)c1nc(Cl)ccc1N[C@H](C)c1cc(C)cc2c(=O)nc(-c3ccc(C(F)(F)F)nc3)n(C)c12` [Compound 113], for which the IC50 in the assay with MCF-10A cells (Homo sapiens, 144 h) is above 5 µM.

As for `COC(=O)c1nc(Cl)ccc1N[C@@H](C)c1cc(C)cc2c(=O)nc(-c3ccc(C(F)(F)F)nc3)n(C)c12` [Compound 114], the IC50 in the assay with MCF-10A cells (Homo sapiens, 144 h) is above 5 µM.

As to `Cc1cc(C(C)N2CCc3ccccc32)c2oc(-c3ccc(F)cc3F)cc(=O)c2c1` (centres unmarked) [Compound 116, 2-(2,4-difluorophenyl)-8-(1-(indolin-1-yl)ethyl)-6-methyl-4H-benzopyran-4-one], the IC50 with MCF-10A cells (Homo sapiens, 144 h) was above 5 µM; with T47D cells (Homo sapiens, 168 h) it was above 5 µM.
